The assay has as its system VGLUT1+ puncta. Briefly: VGLUT1 immunostaining of dorsal hippocampus after neonatal HI. It is filed as in vivo, mouse. The note with it: between groups or hemispheres. The method, then: Neuronal nuclei (NeuN), growth associated protein 43 (GAP-43), synapsin I (SYN), vesicular glutamate transporter 1 (VGLUT1), Glial Fibrillary Acidic Protein (GFAP) and ionized calcium-binding adapter molecule 1 (Iba-1) were visualized in the cornu ammonis (CA) and dentate gyrus (DG) of the dorsal hippocampus by immunohistochemistry. Briefly, following heat-induced antigen retrieval with 0.01 M citrate buffer (pH 6, 0.05% Tween 20) for 3×5 min, sections were washed 3×5 min with PBS-T (0.05% Tween 20), non-specific protein binding was reduced by incubation with blocking buffer [4% normal donkey serum (NeuN and Iba-1), 1% bovine serum albumin (GAP-43 and SYN), 3% normal goat serum (VGLUT1), 2% bovine serum albumin (GFAP) in PBS-T] for 1 h at room temperature (RT). […]
NeuN positive cells, GFAP positive relative area, as well as GAP-43, SYN, and VGLUT1 positive puncta were counted by using MetaMorph software (ver. 7.8.6, Molecular Devices, CA, USA) on confocal images obtained with a 20× (NeuN and GFAP) or 63× (GAP-43, SYN, and VGLUT1) objective (Carl Zeiss LSM 700 Laser Scanning Microscope, Jena, Germany). Iba-1 positive cell somata were counted on bright field images obtained with a 20× objective (Nikon Eclipse 80i). […]

For “C3a: Purified human C3a peptide (Complement Technologies), C3a receptor agonist, amino acid sequence SEQ ID NO: 1”, the “density or average area of VGLUT1+ puncta in CA1 or dentate gyrus” value is reported as “did not find any differences”.

The values above are taken from US11266715B2, “C3A receptor agonists for use against ischemic brain injury, stroke, traumatic brain injury, spinal cord injury and neurodegenerative disorders” (priority 2016, dated 2022).
